Measurements as given in US20230218654A1, “COMPOSITIONS AND METHODS FOR TREATING HYPERGLYCEMIA IN TYPE-2 DIABETES” (The Board of Regents of the university of Oklahoma, priority 2020, published 2023).

How the values were obtained:
Type in all cases: in vivo
obese mice = assay: Hyperinsulinemic-euglycemic clamp study
Method: A hyperinsulinemic-euglycemic clamp study was conducted in which obese mice were treated with vehicle or MLN4924.

[1] = tested on: male C57BL/6J mice fed Chow or Western diet; assay: MLN4924 intervention for 9 weeks in 16-week WD-fed mice (Experimental II)
Method: Chronic MLN4924 treatment attenuates hepatic steatosis in Western diet-fed mice. Male C57BL/6J mice were fed Chow (C) or Western diet (WD) for 16 weeks. MLN4924 treatment (60 mg/kg, SQ, every other day) was initiated after mice were fed WD for 7 weeks as indicated. Control mice were injected with vehicle. After 16 weeks of feeding, mice were fasted from 9 am to 3 pm and euthanized. Scale bar = 125 µm. […]
WT male C57BL/6J mice were purchased from the Jackson Lab (Bar Harbor, ME). Western diet (TD. 88137, Envigo Inc. Indianapolis, IN) contains 42% fat calories and 0.2% cholesterol. Mice were housed in micro-isolator cages with corn cob bedding under 7 am - 7 pm light cycle and 7 pm -7 am dark cycle. MLN4924 was prepared in 10% 2-hydroxypropyl-b-cyclodextrin to a final concentration of 3 mg/ml. All mice were fasted for 6 h from 9 am to 3 pm before euthanasia. All animals received humane care according to the criteria outlined in the “Guide for the Care and Use of Laboratory Animals.” All animal protocols were approved by the Institutional Animal Care and Use Committee at the University of Kansas Medical Center and the University of Oklahoma Health Sciences Center. […]
Human normal livers (less than 5% steatosis) and histologically confirmed NASH livers were obtained from either the University of Kansas Liver Center or the Liver Tissue Cell Distribution System (LTCDS) at the University of Minnesota. Human and mouse tissue samples were homogenized in 1XRIPA buffer containing 1% SDS and protease inhibitors. After incubation on ice for 1 hour, the samples were centrifugation and supernatant was transferred to a new tube. The protein lysate was mixed with equal volume of 2X laemmli buffer and incubated at 95° C. for 5 minutes and used for SDS-PAGE and immunoblotting. ImageJ software (NIH) was used to determine band intensity.
Total liver RNA was purified with Trizol (Sigma-Aldrich, St. Louis, MO). Total liver RNA was used in reverse transcription with Oligo dT primer and SuperScript III reverse transcriptase (Thermo Fisher Scientific, Grand Island, NY). Real-time PCR was performed on a Bio-Rad CFX384 Real-time PCR system with iQ SYBR Green Supermix (Bio-rad, Hercules, CA). The comparative CT (Ct) method was used to calculate the relative mRNA expression. The relative mRNA expression was expressed as 2 ^-ΔΔCt with the control group arbitrarily set as “1”. […]

[2] = tested on: male C57BL/6J mice fed C or WD; assay: Intervention study: MLN4924 initiated after 8 weeks of WD feeding
Method: MLN4924 (60 mg/kg, SQ) was given every other day for the last 8 weeks of the 16-week feeding. For both cohorts, body weight was measured weekly. Results are mean ±SEM. n=5-7. “*”, vs C+Veh; “#”, vs. WD+Veh, p<0.05. ns= Not significant.
Male C57BL/6J mice were fed chow or WD for 16 weeks. Vehicle or MLN4924 treatment (60 mg/kg, SQ, once every two days) was initiated after 8 weeks of WD feeding. Analyses were performed after 16 weeks of feeding. Results are mean ± SEM. n=5-8. “*”, vs C+Veh; “#”, vs. WD+Veh, p<0.05. Normalized densitometry was shown in low panel bar graphs.
Male C57BL/6J mice were purchased from the Jackson Laboratory (Bar Harbor, ME). Mice were fed a regular chow (C) diet or a Western diet (WD) that contains 42% fat calories and 0.2% cholesterol content (TD. 88137, Envigo Inc. Indianapolis, IN).
MLN4924 and TAS4464 were purchased from MedChemExpress (MCE, Monmouth Junction, NJ). For cell treatment, MLN4924 and TAS4464 were dissolved in DMSO. Cells were serum starved overnight and then treated with MLN4924, TAS4464 and/or insulin as indicated. For injection in mice, MLN4924 and TAS4464 were first dissolved in DMSO, which was further suspended in 10% (2-hydroxypropyl)-β-cyclodextrin (Sigma, St. Louis, MO). The final solution contains 1% DMSO. The subcutaneous injection volume is 200 µl/mouse.
Lipids were extracted in a mixture of chloroform: methanol (2:1; v: v), dried under nitrogen, and resuspended in isopropanol containing 1% triton X-100. Total cholesterol, free cholesterol and TG were measured with assay kits following the manufacturer’s instruction. Total cholesterol assay kit and TG assay kit were purchased from Pointe Scientific (Canton, MI).
Aspartate aminotransferase (AST) and alanine aminotransferase (ALT) assay kits were purchased from Pointe Scientific (Canton, MI). Free fatty acid assay kit was purchased from Biovision Inc. (Milpitas, CA). Insulin ELISA kit was purchased from Crystal Chem Inc. (Elk Grove Village, IL).
Next investigated was the glucose lowering effect of CRL inhibition in mice rendered obese and insulin resistant by 16-weeks of WD feeding. […] Next conducted was an intervention study in which MLN4924 treatment was initiated after mice were fed WD for 8 weeks that rendered mice obese and insulin resistant. […] In summary, robust evidence is provided herein that pharmacological CRL inhibition is an effective approach to lowering hyperglycemia.

[3] = chronic MLN4924, 60 mg/kg SQ once every 2 days
[4] = WD 16 weeks, 60 mg/kg SQ every other day for last 8 weeks

NS(=O)(=O)OC[C@@H]1C[C@@H](n2ccc3c(N[C@H]4CCc5ccccc54)ncnc32)C[C@@H]1O [MLN4924, ((1S,2S,4R)-4-(4-((1S)-2,3-dihydro-1H-inden-1-ylamino)-7H-pyrrolo[2,3-d]pyrimidin-7-yl)-2-hydroxycyclopentyl) methyl sulfamate]
glucose infusion rate (obese mice): ~ 30 mg/kg/min | plasma insulin level during the clamp procedure (obese mice): ~ 3.75 ng/ml | ALT ([1]; WD-fed mice): significantly reduced ALT | hepatic fat accumulation ([1]; WD-fed mice): significant reduction of hepatic fat accumulation | plasma insulin levels ([1]; WD-fed mice): not reduced | blood glucose ([1]; WD-fed mice, intervention for 9 weeks): completely normalized blood glucose | liver histology ([1]; chow-fed MLN4924-treated mice): appeared normal | plasma insulin ([1]; chow-fed mice): did not affect plasma insulin | alanine aminotransferase (ALT) elevation ([1]; chow-fed mice, 9 weeks): did not cause alanine aminotransferase (ALT) elevation | hypoglycemia ([1]; chow-fed mice, intervention for 9 weeks): without causing undesirable hypoglycemia | hepatic glucose 6-phosphatase (G6Pase) gene ([1]; chronic MLN4924): decreased hepatic gluconeogenic gene glucose 6-phosphatase (G6Pase) | liver pyruvate kinase (L-PK) gene ([1]; chronic MLN4924): downregulation of liver pyruvate kinase (L-PK) | hepatic IRS protein [1, 3]: increased IRS protein | hepatic cullin neddylation [1, 3]: decreased hepatic cullin neddylation | hepatic downstream AKT activation [1, 3]: increased IRS protein and downstream AKT activation | tolerability / hepatotoxicity ([1]; chronic MLN4924, 9 weeks): well tolerated and did not cause hepatotoxicity | blood glucose (6 h fast) [2, 4]: normalized blood glucose | hepatic steatosis as measured by liver TGs [2, 4]: lowered hepatic steatosis | serum AST [2, 4]: decreased serum AST | liver IRS protein abundance ([2]; WD 16 weeks, 60 mg/kg SQ once every two days after 8 weeks): increases liver IRS protein abundance | hepatic AKT phosphorylation ([2]; chronic WD-fed mice): increased hepatic AKT phosphorylation
